Data on two compounds can be found in patent publication US20040138239A1, “Compositions and methods for targeting cerebral circulation and treatment of headache” (priority 2004, published 2004).

Structures are written as SMILES.

One assay has as its system fever. To be noted: oral delivery; cited from earlier work.
The test system of a further assay is headache. In words: Inventors' observation: topical NSAID formulations in treatment of a headache. Format: in vivo, human. As to conditions: applied to tender spot or area superficial to carotid, temporal and/or vertebral artery. The source says:
Especially preferred compositions include a xanthine derivative in a concentration of about 4% (wt) to 70% (wt) and ketoprofen in a concentration of about 0.5% (wt) to 50% (wt). With respect to the xanthine derivative, the same considerations as described above apply. Furthermore, such particularly preferred compositions may be formulated in a lecithin-containing formulation or a pluronic-lecithin-organogel formulation (supra). It should be especially recognized, that compositions including a xanthine derivative or an NSAID have generally been described in the art. However, the inventors observed that formulations including an NSAID other than Ketoprofen generally fail to provide relief in treatment of a headache, when topically applied to a person (either to a tender spot, or to an area superficial to a carotid artery, a temporal artery and/or a vertebral artery). It is therefore a surprising result that Ketoprofen is the only NSAID effective in treatment of a headache when used in protocols according to the inventive subject matter (see also examples). While not wishing to be bound by a particular hypothesis or theory, the inventors contemplate that the effect of Ketoprofen may be at least in part mediated by a muscle-relaxant effect rather than via a suppressive effect in inflammation.

For `CC(=O)Nc1ccc(O)cc1` [Acetaminophen], the “time to achieve sufficient plasma concentration to lower the fever” value in the assay with fever is reported as “at least 20 minutes”.

With `CC(C(=O)O)c1cccc(C(=O)c2ccccc2)c1` (centres unmarked) [Ketoprofen, 2-(meta-benzoylphenyl)pro-pionic acid], in the assay on headache, the “relief in treatment of a headache when topically applied” value is listed as “effective”.
